From ChEMBL document CHEMBL1201862, “PubChem BioAssay data set” (2004)
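All cell lines were grown in 96-well plates and treated with compound for 48 hours. GI50 is the concentration that inhibits growth by half.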 Calls of active or inactive are those of the source. No stated cut-off is given here; in the data, active = GI50 up to about 1.1 µM and inactive = higher.

How the values were obtained:
Assay in all cases: NCI-60 cell line screen, 48 h
SF-539 = test system: SF-539
SR = test system: SR
NCI/ADR-RES = test system: NCI/ADR-RES
SK-MEL-28 = test system: SK-MEL-28
DU-145 = test system: DU-145
T47D = test system: T47D
RXF 393 = test system: RXF 393
NCI-H226 = test system: NCI-H226
786-0 = test system: 786-0
HOP-62 = test system: HOP-62
TK-10 = test system: TK-10
OVCAR-3 = test system: OVCAR-3
IGROV-1 = test system: IGROV-1
SF-268 = test system: SF-268
OVCAR-5 = test system: OVCAR-5
HT-29 = test system: HT-29
A498 = test system: A498
MDA-N = test system: MDA-N
CCRF-CEM = test system: CCRF-CEM
U-251 = test system: U-251

SMILES | GI50 (SF-539) | GI50 (SR) | GI50 (NCI/ADR-RES) | GI50 (SK-MEL-28) | GI50 (DU-145) | GI50 (T47D) | GI50 (RXF 393) | GI50 (NCI-H226) | GI50 (786-0) | GI50 (HOP-62) | GI50 (TK-10) | GI50 (OVCAR-3) | GI50 (IGROV-1) | GI50 (SF-268) | GI50 (OVCAR-5) | GI50 (HT-29) | GI50 (A498) | GI50 (MDA-N) | GI50 (CCRF-CEM) | GI50 (U-251)
COc1ccc2c(Cl)cc(NC(=S)Nc3ccccc3)nc2c1 | 32.6 µM (inactive) | 26.2 µM (inactive) | 22.3 µM (inactive) | 33.6 µM (inactive) | 35.7 µM (inactive) | 14.5 µM (inactive) | 20.2 µM (inactive) | 55.5 µM (inactive) | 22.3 µM (inactive) | 35.5 µM (inactive) | 57.7 µM (inactive) | 31.8 µM (inactive) | 20.8 µM (inactive) | 24.8 µM (inactive) | 30.1 µM (inactive) | 22.4 µM (inactive) | 21.1 µM (inactive) | 15.4 µM (inactive) | < 0.01 µM (active) | 20 µM (inactive)
N#CC1=C(N)N(c2ccccc2)C(c2ccccc2)C1(C#N)C#N (stereo not given) | 14.7 µM (inactive) | 17.1 µM (inactive) | 20.3 µM (inactive) | 16.7 µM (inactive) | 17.8 µM (inactive) | 10.4 µM (inactive) | 15 µM (inactive) | 17.7 µM (inactive) | 17.5 µM (inactive) | 18 µM (inactive) | 16.5 µM (inactive) | 17.8 µM (inactive) | 15.7 µM (inactive) | 22.6 µM (inactive) | 16.1 µM (inactive) | 15.7 µM (inactive) | 17.4 µM (inactive) | 19.3 µM (inactive) | 12.8 µM (inactive) | 17.1 µM (inactive)
CC(NC(=O)c1ccccc1)(C(=O)O)C(=O)O | > 100 µM (inactive) | > 100 µM (inactive) | > 100 µM (inactive) | > 100 µM (inactive) | > 100 µM (inactive) | > 100 µM (inactive) | > 100 µM (inactive) | > 100 µM (inactive) | > 100 µM (inactive) | > 100 µM (inactive) | > 100 µM (inactive) | > 100 µM (inactive) | > 100 µM (inactive) | > 100 µM (inactive) | > 100 µM (inactive) | > 100 µM (inactive) | > 100 µM (inactive) | > 100 µM (inactive) | > 100 µM (inactive) | > 100 µM (inactive)
CC(=O)O[C@@]12CO[C@@H]1C[C@@H](O)[C@@]1(C)C(=O)[C@H](O)C3=C(C)[C@@H](OC(=O)[C@H](O)[C@@H](NC(=O)c4ccccc4)c4ccccc4)C[C@@](O)([C@@H](OC(=O)c4ccccc4)C12)C3(C)C (stereo not given in full) | < 0.0114 µM (active) | 0.0438 µM (active) | 20.8 µM (inactive) | 0.748 µM (active) | 0.0301 µM (active) | 0.0272 µM (active) | 0.222 µM (active) | 17.4 µM (inactive) | 0.0628 µM (active) | 0.0893 µM (active) | 0.705 µM (active) | < 0.0162 µM (active) | 0.0218 µM (active) | 0.0594 µM (active) | 0.0832 µM (active) | < 0.01 µM (active) | 0.213 µM (active) | < 0.01 µM (active) | 0.0103 µM (active) | 0.141 µM (active)
CN1CCN(c2ccc([N+](=O)[O-])c3no[n+]([O-])c23)CC1 | 0.0652 µM (active) | < 0.01 µM (active) | 0.161 µM (active) | 1.98 µM (inactive) | 0.141 µM (active) | 0.0661 µM (active) | 0.122 µM (active) | 0.604 µM (active) | 0.0452 µM (active) | 0.0607 µM (active) | 0.792 µM (active) | 0.396 µM (active) | 0.0719 µM (active) | 0.0375 µM (active) | 1.76 µM (inactive) | 0.18 µM (active) | 1.04 µM (active) | 1.36 µM (inactive) | 0.0143 µM (active) | 0.097 µM (active)
O=C(O)Cc1cccnc1 | > 100 µM (inactive) | > 100 µM (inactive) | > 100 µM (inactive) | > 100 µM (inactive) | > 100 µM (inactive) | > 100 µM (inactive) | > 100 µM (inactive) | > 100 µM (inactive) | > 100 µM (inactive) | > 100 µM (inactive) | > 100 µM (inactive) | > 100 µM (inactive) | > 100 µM (inactive) | > 100 µM (inactive) | > 100 µM (inactive) | > 100 µM (inactive) | > 100 µM (inactive) | > 100 µM (inactive) | > 100 µM (inactive) | > 100 µM (inactive)
CC1(C)CCC(=O)NC1CC(=O)CC1NC(=O)CCC1(C)C (stereo not given) | > 100 µM (inactive) | 7.08 µM (inactive) | > 100 µM (inactive) | > 100 µM (inactive) | > 100 µM (inactive) | > 100 µM (inactive) | > 100 µM (inactive) | > 100 µM (inactive) | > 100 µM (inactive) | > 100 µM (inactive) | > 100 µM (inactive) | > 100 µM (inactive) | > 100 µM (inactive) | > 100 µM (inactive) | > 100 µM (inactive) | > 100 µM (inactive) | > 100 µM (inactive) | > 100 µM (inactive) | > 100 µM (inactive) | > 100 µM (inactive)
N#CCCN(CCC#N)c1ccc(C(/N=N/c2ccccc2)=N\c2ccccc2)cc1 | > 100 µM (inactive) | > 100 µM (inactive) | > 100 µM (inactive) | > 100 µM (inactive) | > 100 µM (inactive) | > 100 µM (inactive) | > 100 µM (inactive) | > 100 µM (inactive) | > 100 µM (inactive) | > 100 µM (inactive) | > 100 µM (inactive) | > 100 µM (inactive) | > 100 µM (inactive) | > 100 µM (inactive) | > 100 µM (inactive) | > 100 µM (inactive) | > 100 µM (inactive) | > 100 µM (inactive) | > 100 µM (inactive) | > 100 µM (inactive)
CSc1ncnc2c1cnn2Cc1cn(COCCO)nn1 | > 100 µM (inactive) | 12.5 µM (inactive) | > 100 µM (inactive) | > 100 µM (inactive) | 49.3 µM (inactive) | > 100 µM (inactive) | 46.6 µM (inactive) | > 100 µM (inactive) | 18.7 µM (inactive) | 64.7 µM (inactive) | > 100 µM (inactive) | 18.3 µM (inactive) | 74.8 µM (inactive) | > 100 µM (inactive) | 88.5 µM (inactive) | 22.3 µM (inactive) | > 100 µM (inactive) | 18.5 µM (inactive) | 43.5 µM (inactive) | 64.1 µM (inactive)
COC(=O)CCC1=NCC(C)(C)O1 | > 10 µM (inactive) | > 10 µM (inactive) | > 10 µM (inactive) | > 10 µM (inactive) | > 10 µM (inactive) | > 10 µM (inactive) | > 10 µM (inactive) | > 10 µM (inactive) | > 10 µM (inactive) | > 10 µM (inactive) | > 10 µM (inactive) | > 10 µM (inactive) | > 10 µM (inactive) | > 10 µM (inactive) | > 10 µM (inactive) | > 10 µM (inactive) | > 10 µM (inactive) | > 10 µM (inactive) | > 10 µM (inactive) | > 10 µM (inactive)
CC1(C)CCCCCC(C)(CCCCCCCCCCCO)C1=O (stereo not given) | 16.7 µM (inactive) | 1.41 µM (inactive) | 14 µM (inactive) | 17.9 µM (inactive) | 17.7 µM (inactive) | 14.6 µM (inactive) | 16.9 µM (inactive) | 17.1 µM (inactive) | 16.2 µM (inactive) | 17.7 µM (inactive) | 12.1 µM (inactive) | 16 µM (inactive) | 18.2 µM (inactive) | 16.1 µM (inactive) | 17.2 µM (inactive) | 11.9 µM (inactive) | 17.9 µM (inactive) | 17.9 µM (inactive) | 13 µM (inactive) | 17 µM (inactive)
CCN(CC)CCN1CCN=c2c3cc(OC)ccc3n3cnc4ccc1c2c43 | 0.323 µM (active) | 0.174 µM (active) | 0.475 µM (active) | 1.5 µM (inactive) | 0.7 µM (active) | 5.52 µM (inactive) | 0.292 µM (active) | 1.54 µM (inactive) | 0.272 µM (active) | 0.979 µM (active) | 1.07 µM (active) | 0.946 µM (active) | 0.357 µM (active) | 0.466 µM (active) | 0.736 µM (active) | 0.0859 µM (active) | 0.746 µM (active) | 0.49 µM (active) | 0.218 µM (active) | 0.789 µM (active)
C=C(Cl)C(Cl)(CBr)CCCC(C)(C)Cl (stereo not given) | 2.47 µM (inactive) | > 53 µM (inactive) | 30.4 µM (inactive) | 11.7 µM (inactive) | 10.9 µM (inactive) | 1.8 µM (inactive) | 17.7 µM (inactive) | > 72.9 µM (inactive) | 5.04 µM (inactive) | 4.26 µM (inactive) | 2.26 µM (inactive) | 2.47 µM (inactive) | 33.3 µM (inactive) | 12.7 µM (inactive) | 18.4 µM (inactive) | 1.97 µM (inactive) | 19.8 µM (inactive) | 28.1 µM (inactive) | > 33.7 µM (inactive) | 2.11 µM (inactive)
O=C(/C=C/c1ccc(O)c(O)c1)NC(COC(=O)/C=C/c1ccc(O)c(O)c1)C(=O)O (stereo not given) | > 100 µM (inactive) | > 100 µM (inactive) | > 100 µM (inactive) | > 100 µM (inactive) | > 100 µM (inactive) | > 100 µM (inactive) | > 100 µM (inactive) | > 100 µM (inactive) | > 100 µM (inactive) | > 100 µM (inactive) | > 100 µM (inactive) | > 100 µM (inactive) | > 100 µM (inactive) | > 100 µM (inactive) | > 100 µM (inactive) | > 100 µM (inactive) | > 100 µM (inactive) | > 100 µM (inactive) | 37.8 µM (inactive) | > 100 µM (inactive)
